In series [1] the test system is mice. The note with it: doses that failed to produce antidepressant effects in control animals; cited from earlier work.
Series [2] has as its system Wistar Kyoto (WKY) rats. The note with it: cited from earlier work.
In series [3] the test system is Wistar Kyoto (WKY) rats. Particulars: cited from earlier work. The source holds these as a separate data set.
Series [4] deals with burn wounds. The experiment in a line: Burn wounds, 7% body surface, topical treatment (rats). It is filed as in vivo, Sprague-Dawley rats. The note with it: 1% chlorhexidine hydrochloride in combination with BAC-3 in ointment, burn wounds. How it is done:
The wounding of animals was performed according to the Protocol for Animal Use and Care at the University of California-Davis (hereafter UC-Davis). The entire animal protocol required 70 Sprague-Dawley rats: 30 rats for incision wounds and 40 rats for burn wounds. Among them 36 rats were burned over 7% of their skin and 4 rats were burned over 15% of their skin. Incision wounds of whole skin and burn wounds were treated topically with 2 test doses of the pharmaceutical preparation of di-rhamnolipid BAC-3. […] D.E.A. Hamburg); 23.8 g Lanolinum (Producer I.O.I. Hamburg); 4.7 g Cholesterin (Producer: Solvay, Wiena, Austria); Water Number: 320); or b). 1%; 0.1% active rhamnolipid (BAC-3) with antiseptic (chlorhexidine hydrochloride-[…]). Eucerin with BAC-3 was administrated twice daily during healing. The same experiment had one control group without the treatment, and one control group which was treated with ointment+1% chlorhexidine hydrochloride. During the experiment, animal body weight and behavior was checked every third day, and photographs were taken periodically. Burn wounds. The consecutive burn wounds should ideally be identical in depth and extent. The standard method defines the size and location of the burn wound, the temperature gradient, duration of exposure and method of applying the burn. The wound surface areas tested were of two different sizes. One size to 7% of the body surface, which enables one to compare the rate of wound healing with different percentage of BAC-3 and the other size to 15% of the body surface, which is a sufficient size so that healing could not occur by contraction alone. On the other hand, the total wound surface area should not cause major systematic problems. The latter can be concluded from undisturbed weight gain of the animals. The standard animal burn was performed by techniques and device described by Walker. The burning devices were prepared using a model device ordered from U.S. Army Surgical Research Unit, Experimental Surgery, Army Medical Center, Fort Sam Houston, Tex. 78234. […] The surface of the skin was measured for every animal using Mech's formula: A=kW^2/3; A=surface area in cm^2; W=body weight in grams; k=10. Method of burning. Each animal was anesthetized with sodium pentobarbital administered i/p (5 mg/25 g). (Producer: Veterinary Laboratory Inc. Lenexa, Kans.). The hair over the dorsum was clipped with animal clippers. The animal was placed supine in the burning device and the extremities were tied; the malleable retractor was placed over the animal and secured snugly with plastic straps. The entire device was then picked up by the retractor ends with forceps and the exposed area was immersed in boiling water. Ten seconds of exposure was sufficient to produce a full-thickness burn. On removal from the water, the dorsum was quickly dried by rolling on a towel and the animal was released and individually caged. This procedure produced a uniform burn with sharp margins. On post burn days 7, 14 and 45, animals were sacrificed by overdose of sodium pentobarbital and skin specimens were taken for histopathology. Specimens included the wound bed as well as the healthy skin of the wound margins. The specimens were fixed, and two stainings were routinely performed: Hematoxylin-Eosin (H&E) for microscopic evaluation, Verhoeff's staining for a better visualization of the crust and the regenerating dermis, and the alpha smooth muscle acting to identify the myofibroblasts. Microscopic findings were interpreted by a veterinarian pathologist. During the microscopic and macroscopic observations, four wound healing parameters were evaluated: crust formation, re-epithelialization, formation of granulation tissue and inflammation. 36 rats were divided into 6 groups. Each group had six animals. After burning rats according to the above-described procedure, each rat was caged individually. […]

Structures are written as SMILES. Where a name gives a salt, the structure may show the parent alone.

Take `Cc1nc2n(c(=O)c1CCN1CCC(c3noc4cc(F)ccc34)CC1)CCCC2` [risperidone]: the “PCP-induced enhancement of immobility in the forced swimming test” value in series [1] is on record as “attenuated”.

Regarding `CNCCCN1c2ccccc2CCc2ccccc21` [desipramine], the “immobility in the forced swim test” value in series [2] is on record as “reduces”. The “incidence of stress ulcer” value in series [3] is reported as “reduces”.

For `Cc1nc2sccn2c(=O)c1CCN1CCC(=C(c2ccc(F)cc2)c2ccc(F)cc2)CC1` [ritanserin], the “PCP-induced enhancement of immobility in the forced swimming test” value in series [1] is “attenuated”.

`[H]/N=C(\N/C(=N/[H])NCCCCCCNC(=N)NC(=N)Nc1ccc(Cl)cc1)Nc1ccc(Cl)cc1` [chlorhexidine hydrochloride, reference compound]: in series [4], the “wound irritation (rats scratched the wounds)” value is given as “irritated wounds”.

The values above are taken from patent US7129218B2, “Use of rhamnolipids in wound healing, treatment and prevention of gum disease and periodontal regeneration” (Paradigm Biomedical, Inc., priority 1999, dated 2006).
